Patent US11512083B2, “Compounds and methods for the enhanced degradation of targeted proteins” (Arvinas Operations, Inc., priority 2015, dated 2022)

Columns and labels:
[1] = system: Androgen Receptor; assay: Androgen receptor ELISA assay (AR degradation) in LNCaP and/or VCaP cells; format: cell-based; settings: AR PROTACs; 24 h incubation
Protocol: Compounds have been evaluated in this assay in LNCaP and/or VCaP cells utilizing similar protocols. The protocols used with VCaP cells are described below. The androgen receptor ELISA assay was performed using PathScan AR ELISA (Cell Signaling Catalog #128501 according to the following assay steps:
VCaP cells are seeded at 30,000 cells/well at a volume of 200 μL/well in VCaP assay medium [Phenol red free RPMI (Gibco Cat #11835-030); 5% Charcoal Stripped (Dextran treated) FBS (Omega Scientific, Cat #FB-04); Pen/Strep Life Technologies (Gibco Cat #: 10378-016); 0. 1 nM R1881 (Sigma, Cat #R0908) is added upon the start of the assay, not during initial plating of the cells) in Corning 3904 plates. The cells are grown for a minimum of 3 days.
(2)(i) Make 10× stock plate in media; (ii) transfer 2.5 μL of the 1000× stock to a new 10× stock plate (use 12 channel pipet, start at A (DMSO control) work thru H. When 247.5 μL of media is added to this plate, it will serve as a 10× stock; (iii) make media+1 nM R1881 for making 10× stock plate; (iv) add 247.5 μL of media with 1 nM R1881 to each well of the 10× stock plate, mix.
Then 22 μL of 10× stock is added to cells and incubated for 24 h. 1× Cell Signaling Cell lysis buffer is made (Catalogue #9803; comes with the kit)—prepare for 50 μL/well. Keep on ice. Media is aspirated, and 50 μL 1× cell lysis buffer/well is added. The cells are placed on ice for 10 minutes. The solution is mixed and transferred to PCR plate, and centrifuged at 4 C for 10 minutes at 4000 rpm. […]
Add 100 μL/well AR Elisa; cover and shake, 37 C for 2 hrs; dump, tap, wash 4× 200 μL ELISA wash buffer; add 100 μL/well mouse AR detection Ab; cover and shake, 37 C for 1 hr; dump, tap, wash 4× 200 μL ELISA wash buffer; add 100 μL/well anti-mouse—HRP conjugated Ab (comes with the kit); cover and shake, 37 C for 30 min; allow TMB reagent to come to RT; dump, tap, wash 4× 200 μL Elisa wash buffer; tap; add 100 μL TMB, shake 5 min—while watching color. […] Add 100 μL Stop solution; shake and read at 450 nm. […]

[2] = target: BRD4 (Homo sapiens (Human), UniProt O60885); assay: BRD4 c-myc ELISA assay in 22RV-1 cells; format: cell-based; settings: 18 hrs, 300 nM-0.3 nM
Protocol: 22RV-1 cells were seeded at 30,000 cells/well at a volume of 75 μL/well in RPMI+10% FBS media in 96-well plates and grown overnight at 37 C. Cells were dosed with compounds at 4× concentration diluted in 0.4% DMSO; compounds were serially diluted 1:3 for 8-point dose curve. 25 ul of compound was added to cells for a final concentration starting at 300 nM-0.3 nM in 0.1% DMSO and incubated for 18 hrs. Media was aspirated, cells washed 1× with PBS and aspirated. Cells were lysed in 50 ul RIPA buffer (50 mM Tris pH8, 150 mM NaCl, 1% Tx-100, 0.1% SDS, 0.5% sodium deoxycholate) supplemented with protease and phosphatase inhibitors. Plates were incubated on ice for 15 minutes then centrifuged at 4° C. for 10 min at 4000 rpm. Added 50 ul of cleared lysate from 96-well assay plate into 96-well c-myc ELISA plate (Novex, Life Technologies Catalog #KH02041). […] The rest of the assay was performed following the protocol from the c-myc ELISA kit. Data was analyzed and plotted using GraphPad Prism software.

[3] = target: VHL (Homo sapiens (Human), UniProt P40337); assay: VHL fluorescence polarization (FP) competition assay; format: binding

| cMyc Imax [2] | IC50 ([3]; 1% in DMSO) | Structure (SMILES) | other results |
| --- | --- | --- | --- |
|  |  | Cc1ncsc1-c1ccc([C@H](C)NC(=O)[C@@H]2C[C@@H](O)CN2C(=O)[C@H](C(C)C)n2cc(OCCCOCCC(O)CCOc3ccc(N4C(=S)N(c5ccc(C#N)c(C(F)(F)F)c5)C(=O)C4(C)C)cc3)cn2)cc1 (stereo partly shown) | Dmax (highest percentage of Androgen Receptor degradation observed) [1]: +++ (51%≤Dmax≤70%) |
|  |  | Cc1ncsc1-c1ccc(CNC(=O)[C@@H]2C[C@@H](O)CN2C(=O)C(C(C)C)n2cc(OC3CCN(c4ccc(-c5ccc(N6C(=S)N(c7ccc(C#N)c(C(F)(F)F)c7)C(=O)C6(C)C)cc5)cn4)CC3)cn2)cc1 (stereo partly shown) | Dmax (highest percentage of Androgen Receptor degradation observed) [1]: ++ (26%≤Dmax≤50%) |
|  |  | Cc1ncsc1-c1ccc([C@H](C)NC(=O)[C@@H]2C[C@@H](O)CN2C(=O)[C@H](C(C)C)n2cc(-c3ccnc(N4CC[C@@H](Nc5ccc(C(=O)N[C@H]6C(C)(C)[C@H](Oc7ccc(C#N)c(Cl)c7)C6(C)C)cc5)C4)c3)cn2)cc1 | Dmax (highest percentage of Androgen Receptor degradation observed) [1]: ++ (26%≤Dmax≤50%) |
| ++++ (71%≤Imax) |  | Cc1ncsc1-c1ccc([C@H](C)NC(=O)[C@@H]2C[C@@H](O)CN2C(=O)[C@H](C(C)C)n2cc(-c3ccnc(O[C@H]4C[C@H](NC(=O)C[C@@H]5N=C(c6ccc(Cl)cc6)c6c(sc(C)c6C)-n6c(C)nnc65)C4)c3)cn2)cc1 |  |
| ++++ (71%≤Imax) |  | Cc1ncsc1-c1ccc([C@H](C)NC(=O)[C@@H]2C[C@@H](O)CN2C(=O)[C@H](C(C)C)n2cc(-c3ccnc(N4CC[C@H](NC(=O)C[C@@H]5N=C(c6ccc(Cl)cc6)c6c(sc(C)c6C)-n6c(C)nnc65)C4)c3)cn2)cc1 |  |
| ++++ (71%≤Imax) |  | Cc1ncsc1-c1ccc([C@H](C)NC(=O)[C@@H]2C[C@@H](O)CN2C(=O)[C@@H](n2cc(-c3ccnc(O[C@H]4C[C@@H](NC(=O)C[C@@H]5N=C(c6ccc(Cl)cc6)c6c(sc(C)c6C)-n6c(C)nnc65)C4)c3)cn2)C(C)(C)C)cc1 |  |
| ++++ (71%≤Imax) |  | Cc1ncsc1-c1ccc(CNC(=O)[C@@H]2C[C@@H](O)CN2C(=O)[C@H](C(C)C)n2cc(-c3cccc(O[C@H](C)CNC(=O)C[C@@H]4N=C(c5ccc(Cl)cc5)c5c(sc(C)c5C)-n5c(C)nnc54)c3)cn2)cc1 |  |
|  | > 100 µM | Cc1ncsc1-c1ccc(CNC(=O)C2(C)C[C@@H](O)CN2C(=O)[C@H](C(C)C)N2Cc3ccccc3C2=O)cc1 (single isomer, unassigned) [Example 128] |  |
|  | 19.3 µM | Cc1ncsc1-c1ccc(CNC(=O)C2(C)C[C@@H](O)CN2C(=O)[C@H](C(C)C)N2Cc3ccccc3C2=O)cc1 (single isomer, unassigned) [Example 129] |  |
|  | 6.25 µM | CSC[C@H](NC(=O)CCC(C)C)C(=O)N1C[C@H](O)C[C@H]1C(=O)NCc1ccc(-c2scnc2C)cc1 [Example 22, (2S,4R)-4-hydroxy-1-((R)-2-(4-methylpentanamido)-3-(methylthio)propanoyl)-N-(4-(4-methylthiazol-5-yl)benzyl)pyrrolidine-2-carboxamide] | IC50 ([3]; 10% in DMSO): 8.29 µM |
|  | 2.02 µM | Cc1ncsc1-c1ccc(CNC(=O)[C@@H]2C[C@@H](O)CN2C(=O)[C@@H](NC(=O)c2ccccc2C#N)C(C)(C)C)cc1 [Example 70, (2S,4R)-1-((S)-2-(2-cyanobenzamido)-3,3-dimethylbutanoyl)-4-hydroxy-N-(4-(4-methylthiazol-5-yl)benzyl)pyrrolidine-2-carboxamide] | IC50 ([3]; 10% in DMSO): 1.2 µM |
|  | 13.7 µM | Cc1ncsc1-c1ccc(CNC(=O)[C@@H]2C[C@@H](O)CN2C(=O)[C@@H](NC(=O)C2CCN(C)CC2)C(C)(C)C)cc1 [Example 75, N—((S)-1-((2S,4R)-4-hydroxy-2-(4-(4-methylthiazol-5-yl)benzylcarbamoyl)pyrrolidin-1-yl)-3,3-dimethyl-1-oxobutan-2-yl)-1-methylpiperidine-4-carboxamide] | IC50 ([3]; 10% in DMSO): 9.29 µM |
|  | 21.6 µM | Cc1ncsc1-c1ccc(CNC(=S)[C@@H]2C[C@@H](O)CN2C(=O)[C@H](C(C)C)N2Cc3ccccc3C2=O)cc1 [Example 110, (2S,4R)-4-hydroxy-1-((S)-3-methyl-2-(1-oxoisoindolin-2-yl)butanoyl)-N-(4-(4-methylthiazol-5-yl)benzyl)pyrrolidine-2-carbothioamide] |  |
